Measured values published in publication PMC7717570, “Deciphering the enzymatic target of a new family of antischistosomal agents bearing a quinazoline scaffold using complementary computational tools” (Journal of Enzyme Inhibition and Medicinal Chemistry, 2020).
Like-named read-outs stand apart in the source and are kept apart here. Each block holds one molecule with its values, some of them ahead of it.

What was measured:
[1] = Microsomal stability, mouse liver microsomes (S9), Phase-I (CYP450-NADPH); assay type: in vitro ADME; conditions: 5 µM
Description: (§1) Mouse or human liver microsomes (S9), reduced nicotinamide adenine dinucleotide phosphate (NADPH) generating system solutions and uridine glucuronosyltransferase (UGT) reaction mix (BD Biosciences) were kept at −80 °C. The test compounds and reference compound diclofenac were formulated in DMSO at […]. The assay was carried out based on the BD Biosciences Guidelines for Use (TF000017 Rev1.0) with minor adaptations. The metabolic stability of the compounds was studied through the CYP450 superfamily (Phase-I metabolism) by fortification with NADPH and through UGT enzymes (Phase-II metabolism) by fortification with uridine diphosphate glucuronic acid (UDPGA). For CYP450 and other NADPH dependent enzymes, the compounds were incubated at 5 µM together with 0.5 mg/mL S9 in potassium phosphate buffer in a reaction started by the addition of 1 mM NADP. At defined time points, 20 µL was withdrawn from the reaction mixture and 80 µL cold acetonitrile (ACN) was added to inactivate the enzymes and precipitate the protein. The mixture was vortexed for 30 s and centrifuged at 4 °C for 5 min to collect the supernatant. For UGT enzymes, the compounds were incubated at 5 µM together with 0.5 mg/mL S9 in a reaction started by the addition of 2 mM UDPGA cofactor. The loss of parent compound was determined using liquid chromatography (UPLC) (Waters Aquity^TM) coupled with tandem quadrupole mass spectrometry (MS^2) (Waters Xevo^TM), equipped with an electrospray ionisation (ESI) interface and operated in multiple reaction monitoring (MRM) mode.

[2] = Microsomal stability, mouse liver microsomes (S9), Phase-II (UGT enzymes); assay type: in vitro ADME; conditions: 5 µM
Description: as §1

[3] = Microsomal stability, human liver microsomes (S9), Phase-I (CYP450-NADPH); assay type: in vitro ADME; conditions: 5 µM
Description: as §1

[4] = Microsomal stability, human liver microsomes (S9), Phase-II (UGT enzymes); assay type: in vitro ADME; conditions: 5 µM
Description: as §1

[5] = tested on: Schistosoma mansoni mature worms; assay: In vitro S. mansoni worm killing; parameters: key to Worm killing (male worms) / Worm killing (female worms): % worm mortality = dead worms / total worms × 100; conditions: for killing at 5 µM / killing at 10 µM / killing at 25 µM / killing at 50 µM / killing at 100 µM / EC50: Schistosoma mansoni; for killing at 5 µM / killing at 10 µM / killing at 25 µM / killing at 50 µM / killing at 100 µM: 120 h, read-out: Worm killing (% of total); for Worm killing (female worms) / Worm killing (male worms): day 5
Description: The percentage reduction of worm or egg burden in each treated group was calculated. […] Results are expressed as mean ± SEM. A two-tailed, unpaired Student’s t-test was used to detect the significance of difference between the means of different groups. […] Stock solutions of 5 mM PZQ and the quinazoline derivatives 2–13 were prepared in DMSO. Concentrations of 100 µM, 50 µM, 25 µM, 10 µM and 5 µM were freshly prepared on the day of experiment in RPMI-1640 medium. All compounds were initially tested at 100 and 50 µM; those showing worm killing were further tested at 25, 10 and 5 µM. Worms were obtained from SBSC of TBRI. Six to eight worms were placed in 12-well tissue culture plates and fresh RPMI-1640 medium (supplemented with glutamine, 20% newborn calf serum and streptomycin, penicillin, and gentamicin), containing the indicated concentration of the test compound was added[20]^,[21]. Worms were incubated overnight in a CO2 incubator at 37 °C. On the 2nd day, worms were examined by microscopy, washed three times with normal saline, fresh medium was added and the incubation was continued. On the 3rd day, worm motility was observed and on the 4th day, medium was changed again. On day 5 (end of the observation period), worms were microscopically examined for their motility and appearance. Each concentration was tested in duplicate, and the final recording of percent worm mortality was determined as the number of dead worms [contracted and opaque] divided by the total number of worms × 100. Negative controls used medium without additions or medium with 2% DMSO; positive control media containing identical concentrations of PZQ were tested in parallel.

[6] = tested on: Schistosoma mansoni worm couples; assay: S. mansoni ovipositing capacity and coupling; conditions: for inhibition at 5 µM / inhibition at 10 µM / inhibition at 25 µM / inhibition at 50 µM / inhibition at 100 µM: Schistosoma mansoni, 120 h, read-out: Reduction in number of eggs (%)
Description: Stock solutions of 5 mM PZQ and the quinazoline derivatives 2–13 were prepared in DMSO. Concentrations of 100 µM, 50 µM, 25 µM, 10 µM and 5 µM were freshly prepared on the day of experiment in RPMI-1640 medium. All compounds were initially tested at 100 and 50 µM; those showing worm killing were further tested at 25, 10 and 5 µM. 12-well tissue culture plates were used, each well containing 6–8 worms with at least one worm couple. Worms were incubated overnight in a CO2 incubator at 37 °C. Each concentration was tested in duplicate wells. On day 4, eggs were counted and discarded and the medium was changed. On day 5 (end of observation period) newly deposited eggs were counted. The final egg number is the total count of days 4 and 5 for each concentration tested and the final recording of the percentage of egg reduction was determined as [the total number of eggs on days 4 and 5 of control – the total number of eggs on days 4 and 5 of treated]/the total number of eggs on days 4 and 5 of control × 100.

[7] = 5 µM, day 5, mature (6 weeks old) worms, dose-titration (Table 3)
[8] = 10 µM, day 5, mature (6 weeks old) worms, dose-titration (Table 3)
[9] = 25 µM, day 5, mature (6 weeks old) worms, dose-titration (Table 3)
[10] = 50 µM, day 5, initial test (Table 2)
[11] = 50 µM, day 5, mature (6 weeks old) worms, dose-titration (Table 3)
[12] = 100 µM, day 5, initial test (Table 2)
[13] = 100 µM, day 5, mature (6 weeks old) worms, dose-titration (Table 3)
[14] = males and females together, read-out: EC50 (worm killing)
[15] = read-out: EC50 (worm killing, female worms)
[16] = read-out: EC50 (worm killing, male worms)
[17] = 10 µM, dose-titration (Table 3)
[18] = 25 µM, dose-titration (Table 3)
[19] = 50 µM, dose-titration (Table 3)
[20] = 100 µM, dose-titration (Table 3)

% Parent compound remaining upon incubation ([1]; 0 h): 100%
% Parent compound remaining upon incubation ([1]; 0.25 h): 85%
% Parent compound remaining upon incubation ([1]; 0.5 h): 39%
% Parent compound remaining upon incubation ([1]; 1 h): 32%
% Parent compound remaining upon incubation ([2]; 0 h): 100%
% Parent compound remaining upon incubation ([2]; 0.25 h): 89%
% Parent compound remaining upon incubation ([2]; 0.5 h): 83%
% Parent compound remaining upon incubation ([2]; 1 h): 91%
% Parent compound remaining upon incubation ([3]; 0 h): 100%
% Parent compound remaining upon incubation ([3]; 0.25 h): 108%
% Parent compound remaining upon incubation ([3]; 0.5 h): 83%
% Parent compound remaining upon incubation ([3]; 1 h): 65%
% Parent compound remaining upon incubation ([4]; 0 h): 100%
% Parent compound remaining upon incubation ([4]; 0.25 h): 102%
% Parent compound remaining upon incubation ([4]; 0.5 h): 106%
% Parent compound remaining upon incubation ([4]; 1 h): 98%
SMILES: COc1cc2c(=O)n(Cc3ccc(F)cc3)c(=O)n(Cc3ccc(C(F)(F)F)cc3)c2cc1OC [compound 10, 3-(4-Fluorobenzyl)-1-(4-(trifluoromethyl)benzyl)-6,7-dimethoxyquinazolin-2,4(1H,3H)-dione]
killing at 5 µM [5, 7]: 0%
killing at 10 µM [5, 8]: 8%
killing at 25 µM [5, 9]: 50%
killing at 50 µM [5, 10]: 93%
killing at 50 µM [5, 11]: 100%
killing at 100 µM [5, 12]: 100%
killing at 100 µM [5, 13]: 100%
EC50 [5, 14]: 25 µM
EC50 [5, 15]: 26 µM
EC50 [5, 16]: 20 µM
Worm killing (female worms) ([5]; 5 µM): 0
Worm killing (female worms) ([5]; 10 µM): 0
Worm killing (female worms) ([5]; 25 µM): 33
Worm killing (female worms) ([5]; 50 µM): 100
Worm killing (female worms) ([5]; 100 µM): 100
Worm killing (male worms) ([5]; 5 µM): 0
Worm killing (male worms) ([5]; 10 µM): 14
Worm killing (male worms) ([5]; 25 µM): 63
Worm killing (male worms) ([5]; 50 µM): 100
Worm killing (male worms) ([5]; 100 µM): 100
Uncoupling ([6]; 5 µM, dose-titration (Table 3)): No
Uncoupling [6, 17]: No
Uncoupling [6, 18]: Yes
Uncoupling [6, 19]: Yes
Uncoupling ([6]; 50 µM, initial test (Table 2)): Yes
Uncoupling [6, 20]: Yes
Uncoupling ([6]; 100 µM, initial test (Table 2)): Yes
inhibition at 5 µM ([6]; 5 µM, dose-titration (Table 3)): 77%
inhibition at 10 µM [6, 17]: 80%
inhibition at 25 µM [6, 18]: 100%
inhibition at 50 µM ([6]; 50 µM, initial test (Table 2)): 100%
inhibition at 100 µM ([6]; 100 µM, initial test (Table 2)): 100%

% Parent compound remaining upon incubation ([1]; 0 h): 100%
% Parent compound remaining upon incubation ([1]; 0.25 h): 91%
% Parent compound remaining upon incubation ([1]; 0.5 h): 51%
% Parent compound remaining upon incubation ([1]; 1 h): 44%
% Parent compound remaining upon incubation ([2]; 0 h): 100%
% Parent compound remaining upon incubation ([2]; 0.25 h): 101%
% Parent compound remaining upon incubation ([2]; 0.5 h): 103%
% Parent compound remaining upon incubation ([2]; 1 h): 105%
% Parent compound remaining upon incubation ([3]; 0 h): 100%
% Parent compound remaining upon incubation ([3]; 0.25 h): 104%
% Parent compound remaining upon incubation ([3]; 0.5 h): 61%
% Parent compound remaining upon incubation ([3]; 1 h): 67%
% Parent compound remaining upon incubation ([4]; 0 h): 100%
% Parent compound remaining upon incubation ([4]; 0.25 h): 94%
% Parent compound remaining upon incubation ([4]; 0.5 h): 95%
% Parent compound remaining upon incubation ([4]; 1 h): 97%
SMILES: COc1ccc(Cn2c(=O)c3cc(Cl)ccc3n(Cc3ccc(C(F)(F)F)cc3)c2=O)cc1 [compound 9, 6-Chloro-1-(4-(trifluoromethyl)benzyl)-3-(4-methoxybenzyl)quinazolin-2,4(1H,3H)-dione]
killing at 5 µM [5, 7]: 0%
killing at 10 µM [5, 8]: 0%
killing at 25 µM [5, 9]: 0%
killing at 50 µM [5, 10]: 29%
killing at 50 µM [5, 11]: 88%
killing at 100 µM [5, 12]: 100%
killing at 100 µM [5, 13]: 100%
EC50 [5, 14]: 47 µM
EC50 [5, 15]: 49 µM
EC50 [5, 16]: 41 µM
Worm killing (female worms) ([5]; 5 µM): 0
Worm killing (female worms) ([5]; 10 µM): 0
Worm killing (female worms) ([5]; 25 µM): 0
Worm killing (female worms) ([5]; 50 µM): 75
Worm killing (female worms) ([5]; 100 µM): 100
Worm killing (male worms) ([5]; 5 µM): 0
Worm killing (male worms) ([5]; 10 µM): 0
Worm killing (male worms) ([5]; 25 µM): 0
Worm killing (male worms) ([5]; 50 µM): 100
Worm killing (male worms) ([5]; 100 µM): 100
Uncoupling ([6]; 5 µM, dose-titration (Table 3)): No
Uncoupling [6, 17]: No
Uncoupling [6, 18]: Yes
Reduction in number of eggs (%) [6, 19]: 100%
Uncoupling [6, 19]: Yes
Uncoupling ([6]; 50 µM, initial test (Table 2)): Yes
Reduction in number of eggs (%) [6, 20]: 100%
Uncoupling [6, 20]: Yes
Uncoupling ([6]; 100 µM, initial test (Table 2)): Yes
inhibition at 5 µM ([6]; 5 µM, dose-titration (Table 3)): 67%
inhibition at 10 µM [6, 17]: 73%
inhibition at 25 µM [6, 18]: 100%
inhibition at 50 µM ([6]; 50 µM, initial test (Table 2)): 100%
inhibition at 100 µM ([6]; 100 µM, initial test (Table 2)): 100%
